Legend:
[1] = room temperature; cited from earlier work
[2] = test system: Desulfovibrio vulgaris (ATCC 29579); assay: Activity against sulfate reducing bacteria (3-tube MPN); format: cell-based; conditions: 10ppm; one hour of contact time; starting 2x10^7 mpn/ml; SRB2 media
Description: D. vulgaris was cultured for 2 days prior to experiment in SRB 2 media (Intertek). From this culture, 2 ml of inoculum was added to 18 ml anaerobic phosphate buffered saline (PBS).
Each concentration was tested in duplicate. […] The sealed bottles were incubated at room temperature (23°C) without agitation.
An initial sample was taken from the positive control to establish a starting concentration of bacteria for the experiment. 0.5 ml samples were taken at 1 hour time point and diluted in 4.5 ml anaerobic Dey/Engely (D/E) neutralizing broth to neutralize the Cu bacteriocide. A 1:10 dilution series was made using anaerobic PBS. Bacterial numbers were quantified by a 3-tube most probable number (MPN) method. Three tubes of anaerobic modified Baar's media (10 ml each) per dilution were inoculated with 1 ml each from their respective diluted sample. These tubes were incubated at 37°C for 72 hours. Positive samples were evaluated based on the presence of iron sulfide (FeS), which forms a black precipitate as a byproduct of hydrogen sulfide produced by bacterial growth reacting with iron included in the modified Baar's media.
All test media (PBS, D/E and modified Baar's media) were pretreated with 100 µl Oxyrase oxygen scavengers (obtained from Oxyrase Inc, Mansfield, OH) to render the test media anaerobic. […]

Row | Compound | Water solubility [1] [µg/mL] | log10 reduction [2]
1 | [Cu][Br] [CuBr, Copper bromide] | 11 | 
2 | [Cl][Cu][Cl] [CuCl2, copper (II) chloride] |  | less than 3 log10
3 | O=CCCCC=O [gluteraldehyde] |  | greater than 4.23 log10

Reference: patent EP3074024B1, “ANTIMICROBIAL COMPOSITIONS FOR USE IN PRODUCTS FOR PETROLEUM EXTRACTION, PERSONAL CARE, WOUND CARE AND OTHER APPLICATIONS” (Agienic Inc., priority 2013, dated 2015)
